Data published in PubChem BioAssay AID977605 (Broad Institute, 2014).
The source made the active and inactive calls.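 Rule for the calls: active = fitted curve reaches 40% activation below the top valid tested dose, in every test run; inconclusive = test runs disagree on the call; inactive = the rest, including effects opposite to the expected direction.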

Experiment: E-selectin inducers in HUVECs, dose response, imaging, HUVEC, cherry-picked samples (AID 977605);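 note: signal is the share of imaged cells scored positive for E-selectin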
Details: HUVEC E-selectin immunostaining
[1] = at 19.5 µM (top of the series), percent of TNF-alpha response over vehicle
[2] = at 21 µM (top of the series), percent of TNF-alpha response over vehicle

Structure (SMILES) | activation [1] | other results
C[C@@H]1CN([C@@H](C)CO)C(=O)c2cccc(NC(=O)c3ccc(-c4nccs4)cc3)c2O[C@@H]1CN(C)Cc1ccc(Cl)c(Cl)c1 | 0.039% (inactive) | 
C[C@H]1CN([C@@H](C)CO)C(=O)Cc2cc(NC(=O)Cc3cn(C)c4ccccc34)ccc2O[C@H]1CN(C)Cc1ccc(C(F)(F)F)cc1 | 16.2% (inactive) | 
CCOc1cnc(C(=O)NNC(=O)c2ccccc2Br)o1 | 0.602% (inactive) | 
C[C@@H]1CN([C@H](C)CO)C(=O)c2cc(C#Cc3cccc(F)c3)cnc2O[C@H]1CN(C)C(=O)C1CCC1 | 0.008% (inactive) | 
CCn1c(SCC(=O)N(C)Cc2ccc(OC)c(F)c2)nc2cc(S(N)(=O)=O)ccc21 | -0.113% (inactive) | 
CC(C)NC(=O)N(C)C[C@@H]1Oc2ccc(NC(=O)CCC(F)(F)F)cc2CC(=O)N([C@@H](C)CO)C[C@H]1C | 0.007% (inactive) | 
COc1ccc(S(=O)(=O)N(C)C[C@H]2Oc3ccc(NC(=O)Nc4ccc5c(c4)OCO5)cc3CC(=O)N([C@H](C)CO)C[C@H]2C)cc1 |  | activation [2]: 0.257% (inactive)
O=C1CC(N2CCSCC2)C(=O)N1c1cccc(Br)c1 (configuration not stated) | -0.085% (inactive) | 
COc1ccc(CN(C)C[C@@H]2Oc3c(NC(=O)c4cnccn4)cccc3C(=O)N([C@@H](C)CO)C[C@H]2C)cc1 |  | activation [2]: -0.033% (inactive)
C[C@@H]1CN([C@H](C)CO)C(=O)c2cc(NC(=O)CCN3CCOCC3)ccc2O[C@@H]1CN(C)Cc1ccncc1 | -0.14% (inactive) | 
CC(C)NC(=O)N(C)C[C@H]1Oc2c(NC(=O)CCCCCC(=O)Nc3ccccc3N)cccc2C(=O)N([C@@H](C)CO)C[C@H]1C |  | activation [2]: -0.093% (inactive)
CC(C)NC(=O)Nc1ccc2c(c1)CC(=O)N([C@H](C)CO)C[C@@H](C)[C@@H](CN(C)Cc1ccc3c(c1)OCO3)O2 |  | activation [2]: -0.173% (inactive)
C[C@@H]1CN([C@@H](C)CO)C(=O)c2cccc(NC(=O)C3CC3)c2O[C@H]1CN(C)Cc1ccccc1 | 0.172% (inactive) | 
O=C(C1CCCN(c2nnc(-n3cccc3)s2)C1)N1CCN(c2ccccc2)CC1 (configuration not stated) | 0.14% (inactive) | 
Cc1c(N(C)C(=O)COc2ccc3ccccc3c2)c(=O)n(-c2ccccc2)n1C | -0.279% (inactive) | 
CCN(Cc1ccccc1)S(=O)(=O)c1ccc(OC)c2ncccc12 | -0.178% (inactive) | 
OC(Cc1ccccc1Br)c1ncc(-c2ccc(Cl)cc2)[nH]1 (configuration not stated) | 1.34% (inactive) | 
Cc1noc(C)c1NC(=O)N(C)C[C@H]1Oc2ccc(NS(=O)(=O)c3cccs3)cc2C(=O)N([C@H](C)CO)C[C@@H]1C | 3.28% (inactive) | 
O=C(CN(CC1CCCO1)C(=O)CNS(=O)(=O)c1ccccc1)NCc1ccc(F)cc1 (configuration not stated) | 1.46% (inactive) | 
N#CC1(NC(=O)CN2C(=O)c3ccccc3C2=O)CCCCC1 | 16.1% (inactive) | 
COc1ccc(S(=O)(=O)N(C)C[C@H]2Oc3c(NC(=O)Nc4c(C)noc4C)cccc3C(=O)N([C@@H](C)CO)C[C@H]2C)cc1 | -0.174% (inactive) | 
CC1CCN(c2nc3c(=O)[nH]c(N)nc3n2[C@@H]2O[C@H](CO)[C@@H](O)[C@H]2O)CC1 | 0.131% (inactive) | 
C[C@@H]1CN([C@@H](C)CO)C(=O)c2cc(NC(=O)Nc3ccc(C(F)(F)F)cc3)ccc2O[C@@H]1CN(C)Cc1ccc(Oc2ccccc2)cc1 | -0.275% (inactive) | 

Structure (SMILES) | activation [1] | other results
C[C@H]1CN([C@@H](C)CO)C(=O)c2cccc(NC(=O)c3ccncc3)c2O[C@@H]1CN(C)Cc1ccc(C(=O)Nc2ccccc2N)cc1 | 0.014% (inactive) | 
C[C@H]1CN([C@@H](C)CO)C(=O)c2cc(NC(=O)Cn3cnnn3)ccc2O[C@@H]1CN(C)Cc1ccc2c(c1)OCO2 |  | activation [2]: -0.073% (inactive)
C[C@@H]1CN([C@H](C)CO)C(=O)c2cc(NC(=O)Nc3ccc4c(c3)OCO4)ccc2O[C@H]1CN(C)S(=O)(=O)c1ccccc1 |  | activation [2]: -0.095% (inactive)
Cc1ccc(S(=O)(=O)NC(Cc2ccccc2)C(=O)O)cc1C (configuration not stated) | -0.133% (inactive) | 
C[C@@H]1CN([C@@H](C)CO)C(=O)Cc2cc(NC(=O)C3CC3)ccc2O[C@@H]1CN(C)Cc1ccc2c(c1)OCO2 | -0.129% (inactive) | 
C[C@@H]1CN([C@@H](C)CO)C(=O)Cc2cc(NC(=O)c3ccncc3)ccc2O[C@H]1CN(C)Cc1ccc(Oc2ccccc2)cc1 | 0.031% (inactive) | 
CO[C@@H]1CN(C)C(=O)c2cc(NS(C)(=O)=O)ccc2OC[C@@H](C)N(C(=O)c2ccc3c(c2)OCO3)C[C@@H]1C | -0.203% (inactive) | 
C[C@H](CO)N1C[C@H](C)[C@@H](CN(C)S(C)(=O)=O)Oc2ccc(NC(=O)C3CCCCC3)cc2CC1=O | 0.112% (inactive) | 
C[C@@H]1CN([C@H](C)CO)C(=O)Cc2cc(NS(=O)(=O)c3ccc(F)cc3)ccc2O[C@H]1CN(C)S(=O)(=O)c1ccc(Cl)cc1 | 5.23% (inactive) | 
C[C@@H]1CN([C@@H](C)CO)C(=O)Cc2cc(NC(=O)c3ccncc3)ccc2O[C@@H]1CN(C)C(=O)Nc1ccc(C(F)(F)F)cc1 | -0.044% (inactive) | 
C[C@@H]1CN([C@@H](C)CO)C(=O)c2cccc(NC(=O)Nc3ccccc3)c2O[C@H]1CN(C)S(=O)(=O)c1ccccc1 | 0.91% (inactive) | 
Cc1noc(C)c1NC(=O)Nc1cccc2c1O[C@@H](CN(C)Cc1ccc(C(F)(F)F)cc1)[C@H](C)CN([C@@H](C)CO)C2=O | 0.145% (inactive) | 
CC(C)NC(=O)N(C)C[C@@H]1Oc2ccc(NC(=O)Cn3cnnn3)cc2C(=O)N([C@H](C)CO)C[C@H]1C |  | activation [2]: -0.15% (inactive)
CCCC#Cc1ccc2c(c1)O[C@H](CN(C)C(C)=O)[C@H](C)CN([C@@H](C)CO)S2(=O)=O | 0.607% (inactive) | 
Cc1noc(C)c1S(=O)(=O)Nc1ccc2c(c1)C(=O)N([C@@H](C)CO)C[C@@H](C)[C@@H](CN(C)Cc1ccc3c(c1)OCO3)O2 | -0.115% (inactive) | 
COc1ccc(S(=O)(=O)N(C)C[C@H]2Oc3ccc(NC(=O)Nc4ccc5c(c4)OCO5)cc3CC(=O)N([C@@H](C)CO)C[C@H]2C)cc1 |  | activation [2]: 0.529% (inactive)
CNC[C@@H]1Oc2c(NC(=O)Nc3ccc(F)cc3)cccc2C(=O)N([C@H](C)CO)C[C@H]1C |  | activation [2]: -0.191% (inactive)
NC(C(=O)O)c1cc(=O)[nH]o1 (configuration not stated) |  | activation (at 19.5 µM (top of the series)): 0.044% (inactive)
Cc1cccc(NC(=O)CCCN2C(=O)C(c3ccccc3)Oc3cccnc32)c1C (configuration not stated) | 0.811% (inactive) | 
CC(C)NC(=O)Nc1ccc2c(c1)CC(=O)N([C@H](C)CO)C[C@H](C)[C@@H](CN(C)Cc1ccc(Oc3ccccc3)cc1)O2 | -0.055% (inactive) | 
COc1ccc(C2c3[nH]c4ccccc4c3C[C@H]3C(=O)N(CC(C)C)CC(=O)N23)c(OC)c1 (some centres not stated) | 0.036% (inactive) | 
C[C@@H]1CN([C@H](C)CO)C(=O)c2cccc(NC(=O)Nc3ccccc3)c2O[C@@H]1CN(C)S(=O)(=O)c1ccccc1 | 0.268% (inactive) | 
C[C@@H]1CN([C@H](C)CO)C(=O)c2cc(N(C)C)ccc2O[C@H]1CN(C)S(=O)(=O)c1cn(C)cn1 | -0.007% (inactive) | 

Structure (SMILES) | activation [1] | other results
C[C@@H]1CN([C@@H](C)CO)C(=O)c2cc(NS(=O)(=O)c3cccs3)ccc2O[C@H]1CN(C)C(=O)Nc1ccc2c(c1)OCO2 | -0.287% (inactive) | 
C[C@@H]1CN([C@H](C)CO)C(=O)c2cccc(NC(=O)CCCCCC(=O)Nc3ccccc3N)c2O[C@@H]1CN(C)S(=O)(=O)c1cn(C)cn1 | -0.195% (inactive) | 
C[C@H](CO)N1C[C@H](C)[C@@H](CN(C)Cc2ccc(-c3ccccc3)cc2)Oc2c(NC(=O)Nc3cccc4ccccc34)cccc2C1=O | 1.82% (inactive) | 
C[C@@H]1CN([C@H](C)CO)C(=O)c2cc(NC(=O)NC3CCCCC3)ccc2O[C@H]1CN(C)S(=O)(=O)c1ccc(Cl)cc1 | 1.03% (inactive) | 
C[C@H]1CN([C@@H](C)CO)C(=O)c2cccc(NC(=O)C3CC3)c2O[C@H]1CN(C)Cc1ccccc1 | 1.36% (inactive) | 
COc1ccc(CN(C)C[C@@H]2Oc3ccc(NC(=O)Nc4ccc(F)cc4)cc3CC(=O)N([C@H](C)CO)C[C@H]2C)cc1 | 0.445% (inactive) | 
C[C@@H]1CN([C@@H](C)CO)C(=O)c2cc(NC(=O)Cn3cnnn3)ccc2O[C@@H]1CN(C)Cc1ccc(Oc2ccccc2)cc1 | -0.116% (inactive) | 
COc1ccc(S(=O)(=O)Nc2ccc3c(c2)C(=O)N([C@H](C)CO)C[C@H](C)[C@@H](CN(C)C(=O)Nc2cccc4ccccc24)O3)cc1 | 0.023% (inactive) | 
Cc1cccc(NS(=O)(=O)c2csc(C(N)=O)c2)c1C | 0.111% (inactive) | 
CC(C)(CN1CCCC1)NS(=O)(=O)c1ccc(Cl)cc1 | -0.279% (inactive) | 
COc1ccc(OC)c(NC(=O)c2ccc(CSc3ncccn3)cc2)c1 | 0.128% (inactive) | 
C[C@H](CO)N1C[C@H](C)[C@H](CN(C)S(=O)(=O)c2ccc(Cl)cc2)Oc2ccc(NC(=O)Nc3ccc(F)cc3)cc2CC1=O |  | activation [2]: 0.805% (inactive)
C[C@@H]1CN([C@H](C)CO)C(=O)c2cc(NC(=O)Cn3cnnn3)ccc2O[C@@H]1CN(C)Cc1ccc(Oc2ccccc2)cc1 | -0.117% (inactive) | 
C[C@H](CO)N1C[C@H](C)[C@@H](CN(C)C(=O)NC2CCCCC2)Oc2ccc(NS(=O)(=O)c3ccccc3)cc2C1=O | -0.099% (inactive) | 
C[C@@H]1CN([C@@H](C)CO)C(=O)c2cccc(NC(=O)C3CCOCC3)c2O[C@@H]1CN(C)Cc1ccncc1 | 0.913% (inactive) | 
Cc1cc(C(=O)Nc2cccc3c2O[C@@H](CN(C)S(=O)(=O)c2ccc(F)cc2)[C@@H](C)CN([C@H](C)CO)C3=O)n(C)n1 | 0.077% (inactive) | 
C[C@@H]1CN([C@H](C)CO)C(=O)c2cccc(NC(=O)C3CCOCC3)c2O[C@H]1CN(C)C(=O)Nc1ccccc1 |  | activation [2]: -0.271% (inactive)
C[C@@H]1CN([C@@H](C)CO)C(=O)Cc2cc(NC(=O)c3ccncc3)ccc2O[C@@H]1CN(C)S(C)(=O)=O | 4.61% (inactive) | 
CCOC(=O)c1cccc(NC(=O)Nc2ccc3c(c2)C(=O)OC3)c1 | 0.013% (inactive) | 
C[C@@H]1CN([C@@H](C)CO)C(=O)Cc2cc(NC(=O)Cc3ccccc3)ccc2O[C@@H]1CN(C)Cc1ccncc1 |  | activation [2]: -0.043% (inactive)
C[C@H]1CN([C@@H](C)CO)C(=O)c2cccc(NC(=O)Nc3ccc(F)cc3)c2O[C@@H]1CN(C)C(=O)NC1CCCCC1 |  | activation [2]: 0.342% (inactive)
